Paper PMC10672842, “Anti-Trypanosoma cruzi Activity, Mutagenicity, Hepatocytotoxicity and Nitroreductase Enzyme Evaluation of 3-Nitrotriazole, 2-Nitroimidazole and Triazole Derivatives” (Molecules, 2023)

Experiment: in vitro
Assay type: cell-based
Conditions: human
Protocol: The Lactate Desidrogenase (LDH) Cytotoxicity Detection Kit^PLUS and the Cell Proliferation Reagent WST-1 assays were performed according to the manufacturer’s protocols. The human hepatocellular carcinoma cell line HepG2 was cultured in T25/175 cm^2 flasks with Dulbecco’s modified Eagle’s medium (DMEM, Gibco BRL) supplemented with 10% fetal bovine serum, 3.7 g/L sodium bicarbonate and 100 µg/mL penicillin–streptomycin under standard conditions (37 ± 1 °C, 95% relative humidity and 5% CO2). Cells were split using trypsin-EDTA (0.05%) with phenol red solution (Gibco BRL) and seeded in a 96-well flat-bottomed plate at a density of 1 × 10^4 cells/well. After overnight incubation, the cells were washed with 1X PBS, and the medium was replaced with different compound dilutions (0–5000 µM) in fresh medium (100 µL) followed by 24 h of incubation. DMSO 1% was used as the negative control, and Triton X-100 4% was used as the positive control. For the LDH assay, after treatment, 50 µL of supernatant from each well was transferred to a 96-well flat-bottomed plate, and 50 µL of freshly prepared reaction mixture was added to each well. After 10 min of incubation in the dark at room temperature, 25 µL of stop solution was added to each well, and the absorbance was measured at 492 nm on a microplate reader (Polaris, Celer, MG, Brazil). For the WST-1 assay, after exposure, the supernatant was replaced by 100 µL of WST-1 2% in fresh medium and incubated for 3 h in the dark under standard conditions. The absorbance was measured at 440 nm. […] For cytotoxicity assays, significant differences between the groups were analyzed by one-way ANOVA and Tukey’s post hoc tests (p < 0.01).

Compound	CC50 at 24 h [µM]	CC50 at 48 h [µM]	CC50 at 72 h [µM]
O=[N+]([O-])c1nccn1CC(O)c1ccc(F)cc1F (centres unmarked) [Compound 9, 1-(2,4-Difluorophenyl)-2-(2-nitro-1H-imidazol-1-yl)ethanol]	> 500	> 500	> 500
O=[N+]([O-])c1ncn(CC(O)c2ccc(F)cc2F)n1 (centres unmarked) [Compound 8, 1-(2,4-Difluorophenyl)-2-(3-nitro-1H-1,2,4-triazol-1-yl)ethanol]	> 500	> 500	
O=C(Cn1ccnc1[N+](=O)[O-])NCc1ccccc1 [BZN, benznidazole, reference compound]	> 500	> 500	> 500
